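96-well plates; 48 h exposure; 5 concentrations. Endpoints by linear interpolation between flanking doses. Not reached: highest tested concentration assigned. GI50: concentration for 50% inhibition of growth.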 Calls of active or inactive are those of the source. Cut-off read from the data, not from the text of the source: active = GI50 up to about 1.1 µM and inactive = higher.
Assays:
Assay in all cases: DTP human tumour cell line panel, 48 h
SF-268 = tested on: SF-268
786-0 = tested on: 786-0
HOP-92 = tested on: HOP-92
RXF 393 = tested on: RXF 393
SK-MEL-5 = tested on: SK-MEL-5
OVCAR-8 = tested on: OVCAR-8
K562 = tested on: K562
SF-539 = tested on: SF-539
TK-10 = tested on: TK-10
SNB-75 = tested on: SNB-75
RPMI-8226 = tested on: RPMI-8226
ACHN = tested on: ACHN
SNB-19 = tested on: SNB-19
HOP-62 = tested on: HOP-62
U-251 = tested on: U-251
UACC-62 = tested on: UACC-62
RXF 631 = tested on: RXF 631
HCT-15 = tested on: HCT-15
OVCAR-4 = tested on: OVCAR-4
NCI-H23 = tested on: NCI-H23
NCI-H460 = tested on: NCI-H460
SK-MEL-28 = tested on: SK-MEL-28
DMS-114 = tested on: DMS-114
KM-20L2 = tested on: KM-20L2
SNB-78 = tested on: SNB-78
HCC 2998 = tested on: HCC 2998
HCT-116 = tested on: HCT-116
SW-620 = tested on: SW-620
KM12 = tested on: KM12
UACC-257 = tested on: UACC-257
SF-295 = tested on: SF-295
SK-MEL-2 = tested on: SK-MEL-2
NCI-H226 = tested on: NCI-H226
LXFL 529 = tested on: LXFL 529
HT-29 = tested on: HT-29
LOX IMVI = tested on: LOX IMVI
A498 = tested on: A498
DLD-1 = tested on: DLD-1
UO-31 = tested on: UO-31
M14 = tested on: M14
CCRF-CEM = tested on: CCRF-CEM
HL-60 = tested on: HL-60
DMS-273 = tested on: DMS-273
IGROV-1 = tested on: IGROV-1
CAKI-1 = tested on: CAKI-1
MOLT-4 = tested on: MOLT-4
COLO 205 = tested on: COLO 205
SR = tested on: SR
SN12C = tested on: SN12C
NCI-H522 = tested on: NCI-H522
Malme-3M = tested on: Malme-3M
SK-OV-3 = tested on: SK-OV-3
HOP-18 = tested on: HOP-18
OVCAR-3 = tested on: OVCAR-3
A549 = tested on: A549
OVCAR-5 = tested on: OVCAR-5
XF498 = tested on: XF498
M19-MEL = tested on: M19-MEL
EKVX = tested on: EKVX

For `O=c1c(O)c(-c2ccccc2)n(O)c2ccc(Cl)cc12`, the GI50 (SF-268) was 27.4 µM (inactive), the GI50 (786-0) was 28.7 µM (inactive) and the GI50 (HOP-92) was 34.6 µM (inactive). For the same compound, the GI50 (RXF 393) was 23.1 µM (inactive), the GI50 (SK-MEL-5) was 17.5 µM (inactive) and the GI50 (OVCAR-8) was 21.3 µM (inactive). The GI50 (K562) was 26.5 µM (inactive), the GI50 (SF-539) was 20 µM (inactive) and the GI50 (TK-10) was 31.3 µM (inactive). For the same compound, the GI50 (SNB-75) was 29 µM (inactive), the GI50 (RPMI-8226) was 23.4 µM (inactive) and the GI50 (ACHN) was 30.6 µM (inactive). The GI50 (SNB-19) was 34.2 µM (inactive), the GI50 (HOP-62) was 27.9 µM (inactive) and the GI50 (U-251) was 25.8 µM (inactive). For the same compound, the GI50 (UACC-62) was 24.5 µM (inactive), the GI50 (RXF 631) was 27.5 µM (inactive) and the GI50 (HCT-15) was 16 µM. For the same compound, the GI50 (OVCAR-4) was 36.3 µM (inactive), the GI50 (NCI-H23) was 34.7 µM (inactive) and the GI50 (NCI-H460) was 23.6 µM (inactive). For the same compound, the GI50 (SK-MEL-28) was 44 µM (inactive), the GI50 (DMS-114) was 23 µM (inactive) and the GI50 (KM-20L2) was 28.1 µM (inactive). The GI50 (SNB-78) was 37.3 µM (inactive), the GI50 (HCC 2998) was 17.7 µM (inactive) and the GI50 (HCT-116) was 10.9 µM (inactive). For the same compound, the GI50 (SW-620) was 16.6 µM (inactive), the GI50 (KM12) was 31.6 µM (inactive) and the GI50 (UACC-257) was 25.1 µM (inactive). For the same compound, the GI50 (SF-295) was 29.4 µM (inactive), the GI50 (SK-MEL-2) was 21.5 µM (inactive) and the GI50 (NCI-H226) was 19.1 µM (inactive). For the same compound, the GI50 (LXFL 529) was 23.8 µM (inactive), the GI50 (HT-29) was 36.8 µM (inactive) and the GI50 (LOX IMVI) was 11.4 µM (inactive). For the same compound, the GI50 (A498) was 29.2 µM (inactive), the GI50 (DLD-1) was 26.8 µM (inactive) and the GI50 (UO-31) was 51.2 µM (inactive). The GI50 (M14) was 30.8 µM (inactive), the GI50 (CCRF-CEM) was 23.9 µM (inactive) and the GI50 (HL-60) was 24.1 µM (inactive). For the same compound, the GI50 (DMS-273) was 20.3 µM (inactive), the GI50 (IGROV-1) was 29.6 µM (inactive) and the GI50 (CAKI-1) was 29.9 µM (inactive). For the same compound, the GI50 (MOLT-4) was 32.7 µM (inactive), the GI50 (COLO 205) was 36.1 µM (inactive) and the GI50 (SR) was 28.8 µM (inactive). For the same compound, the GI50 (SN12C) was 20.8 µM (inactive), the GI50 (NCI-H522) was 21.4 µM (inactive) and the GI50 (Malme-3M) was 60.1 µM (inactive). For the same compound, the GI50 (SK-OV-3) was 30.8 µM (inactive), the GI50 (HOP-18) was 47.8 µM (inactive) and the GI50 (OVCAR-3) was 32.3 µM (inactive). For the same compound, the GI50 (A549) was 29.6 µM (inactive) and the GI50 (OVCAR-5) was 38.9 µM (inactive).

With `CCOC(=N)CC(=O)Nc1ccccc1CC` the GI50 (XF498) was > 100 µM (inactive), the GI50 (SF-268) was > 100 µM (inactive) and the GI50 (786-0) was > 100 µM (inactive). For the same compound, the GI50 (RXF 393) was > 100 µM (inactive), the GI50 (SK-MEL-5) was > 100 µM (inactive) and the GI50 (OVCAR-8) was > 100 µM (inactive). For the same compound, the GI50 (K562) was > 100 µM (inactive), the GI50 (SF-539) was > 100 µM (inactive) and the GI50 (TK-10) was > 100 µM (inactive). For the same compound, the GI50 (SNB-75) was > 100 µM (inactive), the GI50 (ACHN) was > 100 µM (inactive) and the GI50 (SNB-19) was > 100 µM (inactive). The GI50 (HOP-62) was > 100 µM (inactive), the GI50 (U-251) was > 100 µM (inactive) and the GI50 (UACC-62) was > 100 µM (inactive). The GI50 (M19-MEL) was > 100 µM (inactive), the GI50 (RXF 631) was > 100 µM (inactive) and the GI50 (HCT-15) was greater than 100 µM. The GI50 (OVCAR-4) was > 100 µM (inactive), the GI50 (NCI-H23) was > 100 µM (inactive) and the GI50 (NCI-H460) was > 100 µM (inactive). For the same compound, the GI50 (SK-MEL-28) was > 100 µM (inactive), the GI50 (KM-20L2) was > 100 µM (inactive) and the GI50 (SNB-78) was > 100 µM (inactive). For the same compound, the GI50 (HCC 2998) was 98.9 µM (inactive), the GI50 (HCT-116) was > 100 µM (inactive) and the GI50 (EKVX) was > 100 µM (inactive). For the same compound, the GI50 (SW-620) was > 100 µM (inactive), the GI50 (KM12) was > 100 µM (inactive) and the GI50 (UACC-257) was > 100 µM (inactive). The GI50 (SF-295) was > 100 µM (inactive), the GI50 (SK-MEL-2) was > 100 µM (inactive) and the GI50 (NCI-H226) was > 100 µM (inactive). The GI50 (LXFL 529) was > 100 µM (inactive), the GI50 (HT-29) was > 100 µM (inactive) and the GI50 (LOX IMVI) was > 100 µM (inactive). The GI50 (A498) was > 100 µM (inactive), the GI50 (DLD-1) was > 100 µM (inactive) and the GI50 (UO-31) was > 100 µM (inactive). For the same compound, the GI50 (M14) was > 100 µM (inactive), the GI50 (CCRF-CEM) was > 100 µM (inactive) and the GI50 (HL-60) was > 100 µM (inactive). The GI50 (DMS-273) was > 100 µM (inactive), the GI50 (IGROV-1) was > 100 µM (inactive) and the GI50 (CAKI-1) was > 100 µM (inactive). For the same compound, the GI50 (MOLT-4) was > 100 µM (inactive), the GI50 (COLO 205) was > 100 µM (inactive) and the GI50 (SR) was > 100 µM (inactive). For the same compound, the GI50 (SN12C) was > 100 µM (inactive), the GI50 (NCI-H522) was > 100 µM (inactive) and the GI50 (Malme-3M) was > 100 µM (inactive). For the same compound, the GI50 (SK-OV-3) was > 100 µM (inactive), the GI50 (HOP-18) was > 100 µM (inactive) and the GI50 (OVCAR-3) was > 100 µM (inactive). For the same compound, the GI50 (A549) was > 100 µM (inactive) and the GI50 (OVCAR-5) was > 100 µM (inactive).

In the case of `CS(=O)(=O)c1ccc(-c2cc(-c3ccc(S(C)(=O)=O)cc3)[n+](-c3cc(-c4ccccc4)c([O-])c(-c4ccccc4)c3)c(-c3ccc(S(C)(=O)=O)cc3)c2)cc1`, the GI50 (XF498) is reported as > 100 µM (inactive), the GI50 (SF-268) is reported as > 100 µM (inactive) and the GI50 (786-0) is reported as > 100 µM (inactive). The GI50 (RXF 393) was > 100 µM (inactive), the GI50 (OVCAR-8) was > 100 µM (inactive) and the GI50 (K562) was > 100 µM (inactive). For the same compound, the GI50 (SF-539) was > 100 µM (inactive), the GI50 (TK-10) was > 100 µM (inactive) and the GI50 (RPMI-8226) was > 100 µM (inactive). The GI50 (ACHN) was > 100 µM (inactive), the GI50 (SNB-19) was > 100 µM (inactive) and the GI50 (HOP-62) was > 100 µM (inactive). For the same compound, the GI50 (U-251) was > 100 µM (inactive), the GI50 (UACC-62) was > 100 µM (inactive) and the GI50 (M19-MEL) was > 100 µM (inactive). The GI50 (RXF 631) was > 100 µM (inactive), the GI50 (HCT-15) was greater than 100 µM and the GI50 (OVCAR-4) was > 100 µM (inactive). For the same compound, the GI50 (NCI-H23) was > 100 µM (inactive), the GI50 (NCI-H460) was > 100 µM (inactive) and the GI50 (SK-MEL-28) was > 100 µM (inactive). For the same compound, the GI50 (DMS-114) was > 100 µM (inactive), the GI50 (KM-20L2) was > 100 µM (inactive) and the GI50 (SNB-78) was > 100 µM (inactive). For the same compound, the GI50 (HCC 2998) was > 100 µM (inactive), the GI50 (HCT-116) was > 100 µM (inactive) and the GI50 (EKVX) was > 100 µM (inactive). For the same compound, the GI50 (SW-620) was > 100 µM (inactive), the GI50 (KM12) was > 100 µM (inactive) and the GI50 (UACC-257) was 38.5 µM (inactive). For the same compound, the GI50 (SF-295) was > 100 µM (inactive), the GI50 (SK-MEL-2) was > 100 µM (inactive) and the GI50 (NCI-H226) was > 100 µM (inactive). The GI50 (LXFL 529) was > 100 µM (inactive), the GI50 (HT-29) was > 100 µM (inactive) and the GI50 (LOX IMVI) was > 100 µM (inactive). The GI50 (A498) was 44.7 µM (inactive), the GI50 (UO-31) was > 100 µM (inactive) and the GI50 (M14) was > 100 µM (inactive). The GI50 (DMS-273) was > 100 µM (inactive), the GI50 (IGROV-1) was > 100 µM (inactive) and the GI50 (CAKI-1) was > 100 µM (inactive). The GI50 (MOLT-4) was > 100 µM (inactive), the GI50 (COLO 205) was > 100 µM (inactive) and the GI50 (SR) was > 100 µM (inactive). For the same compound, the GI50 (SN12C) was > 100 µM (inactive), the GI50 (NCI-H522) was > 100 µM (inactive) and the GI50 (Malme-3M) was > 100 µM (inactive). For the same compound, the GI50 (HOP-18) was > 100 µM (inactive), the GI50 (OVCAR-3) was > 100 µM (inactive) and the GI50 (A549) was > 100 µM (inactive). For the same compound, the GI50 (OVCAR-5) was > 100 µM (inactive).

From ChEMBL document CHEMBL1201862, “PubChem BioAssay data set” (2004)
